According to patent US20070060607A1, “4-amino-thieno[3,2-c] pyridine-7-carboxylic acid derivatives” (priority 2005, published 2007):

Target: T1, c-Raf (Homo sapiens, UniProt P04049)
T1 construct: made in house; host or cells: baculovirus Hi5 insect cells, co-expressed with v-src-FLAG
Test: In vitro kinase assay: c-Raf HTRF assay with 6H-MEK as substrate
Format: biochemical
Conditions: 6H-MEK substrate, dose response
Method: In vitro enzyme activity was determined with c-Raf using a HTRF assay with 6H-MEK as substrate (Dose Response).
The assay utilizes 6H-MEK as the substrate. Upon c-Raf phosphorylation, phosphorylated 6H-MEK is detected with rabbit anti-phospho-MEK1/2, Eu-labeled anti-rabbit, and APC-labeled anti-6H antibodies.
c-Raf enzyme was cloned human c-Raf with EE-tag and was phosphorylated (co-expressed with v-src-FLAG in baculovirus Hi5 cells), 0.2 mg/mL (2.74 μM assuming a molecular weight of 73 kD) and stored at −15° C. Wild-type full-length 6H-MEK was used as substrate, 4.94 mg/mL (154.4 μM assuming a MW of 32 kD) and stored at −15° C.
The following antibodies were used in the detection step: Rabbit α-P-(Ser 217/221)-MEK-1/2 Ab (from Cell Signaling, Cat. # 9121S, Lot 4); Eu-α-rabbit IgG (from Wallac, Cat. # AD0083, Lot 107557, labeling date Jun. 21, 2002, 8 Eu/protein, 580 μg/mL, 3.63 μM); α-6H-SureLight-APC (from Martek, Cat. #AD0059H, Lot E011ABO1, 3.15 μM).
Assays were read with Envision from PerkinElmer, HTRF reading mode with 412 mirrors.
Assays were performed with Costar 384 all-black plates, 120 μL (Cat. # 3710).
Test compounds were dispensed in Weidman 384 polypropylene plates (REMP).
Assay Procedure: • Prepare Kinase Assay Buffer (KAB): 50 mM HEPES (HyClone) pH7, 10 mM MgCl2, 1 mM DTT, 0.1 mM […], and 0.2 mg/mL BSA. • Prepare 6H-MEK (150 nM) in KAB. Add 40 μL/well to a Weidman plate. • Prepare ATP (66 μM) in KAB. • Prepare c-Raf (60 nM) in KAB. Add 25 μL/well to a Weidman plate. • Dilute compounds to 2.4 mM in DMSO. Perform 10-point 3× dilution in DMSO. • Withdraw 2.5 ul/well of DMSO solution and add to 27.5 μL/well ATP solution in (3). • Add 12 μL/well 6H-MEK to the assay plate on the Cybiwell, followed by 6 μL/well of solution in (5) and 6 μL/well of solution in (4) for a DMSO concentration of 2.1% during MEK phosphorylation. • Incubate at 37° C. for 30 minutes. • Prepare rabbit α-P-(Ser 217/221)-MEK-1/2 Ab (1:225 from stock) in AB1: 50 mM HEPES pH7, 0.2 mg/mL BSA, and 53 mM EDTA. • To stop reaction, add 6 μL/well of solution from (8) to the assay plate and incubate at 37° C. for 30 minutes. • Prepare Eu-α-rabbit IgG (9 nM) and α-6H-SureLight-APC (120 nM) in AB2: 50 mM HEPES pH7 and 0.2 mg/mL BSA. • Add 6 μL/well of solution from (10) to the assay plate. • For determining the spectrum cross talk factor, prepare 2 samples following steps (6) to (9). For the blank sample, add 6 μL/well of AB2. For the cross talk factor sample, add 6 μL/well of Eu-anti rabbit IgG (9 nM). • Incubate at 37° C. for 1 hour.
Read HTRF signals at 615 nm and 665 nm on the Envision. Normalize HTRF signals after spectrum cross-talk correction.

T1 sequence (P04049 whole entry): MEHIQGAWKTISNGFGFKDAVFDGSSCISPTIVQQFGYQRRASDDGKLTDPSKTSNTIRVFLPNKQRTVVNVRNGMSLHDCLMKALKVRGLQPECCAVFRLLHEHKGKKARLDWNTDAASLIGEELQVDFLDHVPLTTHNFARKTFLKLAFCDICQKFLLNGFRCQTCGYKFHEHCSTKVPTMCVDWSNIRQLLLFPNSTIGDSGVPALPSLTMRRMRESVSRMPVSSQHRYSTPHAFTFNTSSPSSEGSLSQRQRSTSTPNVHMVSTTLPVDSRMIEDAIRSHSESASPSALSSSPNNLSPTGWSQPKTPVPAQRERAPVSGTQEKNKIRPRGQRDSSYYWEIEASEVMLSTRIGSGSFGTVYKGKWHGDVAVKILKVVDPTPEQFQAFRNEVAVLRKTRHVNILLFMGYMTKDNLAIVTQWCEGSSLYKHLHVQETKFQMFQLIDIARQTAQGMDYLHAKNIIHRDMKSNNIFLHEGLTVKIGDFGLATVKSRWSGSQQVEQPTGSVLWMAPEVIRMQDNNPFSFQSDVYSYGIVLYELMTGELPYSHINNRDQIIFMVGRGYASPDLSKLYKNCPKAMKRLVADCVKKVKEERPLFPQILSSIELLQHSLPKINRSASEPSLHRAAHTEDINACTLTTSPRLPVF

Row | Compound | IC50
1 | CCOC(=O)c1cnc(N)c2c(COc3cccc(OCc4ccccc4)c3)csc12 [Example 2, 4-Amino-3-(3-benzyloxy-phenoxymethyl)-thieno[3,2-c]pyridine-7-carboxylic acid ethyl ester] | 836 nM
2 | CCOC(=O)c1cnc(N)c2c(COc3cccc(OCc4ccc(OC)c(C(F)(F)F)c4)c3)csc12 [Example 18, 4-Amino-3-[3-(4-methoxy-3-trifluoromethyl-benzyloxy)-phenoxymethyl]-thieno[3,2-c]pyridine-7-carboxylic acid ethyl ester] | 324 nM
3 | Nc1ncc(C(=O)NCCO)c2scc(COc3cccc(OCc4cccc(Cl)c4)c3)c12 [Example 7, 4-Amino-3-[3-(3-chloro-benzyloxy)-phenoxymethyl]-thieno[3,2-c]pyridine-7-carboxylic acid (2-hydroxy-ethyl)-amide] | 22 nM
4 | CCOC(=O)c1cnc(N)c2c(COc3cccc(OCc4cccc(OC)c4)c3)csc12 [Example 14, 4-Amino-3-[3-(3-methoxy-benzyloxy)-phenoxymethyl]-thieno[3,2-c]pyridine-7-carboxylic acid ethyl ester] | 2020 nM
